Like-named read-outs stand apart in the source and are kept apart here.
How the values were obtained:
[1] = tested on: mites; experiment: Mite killing efficacy test with an in vitro model
Outline: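 Groups of 17–26 live mites were exposed 5 min at normal temperature to drug in 3% DMSO/97% water (target final 30 µM), then air-dried ~1 h. Dead/total mites were counted at 1–24 h after dosing at room temperature and high humidity. Mortality was scored ≥90% "+++", 50–90% "++", <50% "+".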

[2] = tested on: Diamondback moth; experiment: Killing efficacy test against agricultural pests: diamondback moth test (leaf dip); assay type: in vivo; settings: Plutella xylostella, foliar, 72 h, read-out: Corrected Mortality Rate (%)
Protocol: (§1) Solution preparation: 2 mg of a test compound was weighed and dissolved in 200 µL of acetone, and the sample was diluted with an aqueous solution containing 0.1% Tween 80 to a required concentration to obtain a test solution. 1. Diamondback moth test: The test sample was prepared into solutions with final concentrations of 0.0156 mg/L, 0.125 mg/L, and 1 mg/L. Fresh and clean rapeseed leaves were cut into small pieces of 3 cm × 3 cm. The leaf pieces were immersed in the solutions with different concentrations for 10s, taken out, and air-dried naturally. The treated leaf pieces were placed into Petri dishes lined with moistened filter paper. 20 third-instar larvae of the diamondback moth were introduced into each Petri dish. The Petri dishes were placed in a constant-temperature room, and mortality rates were checked after 72 h. 2. Aphid test: The test sample was prepared into solutions with final concentrations of 2 mg/L, 10 mg/L, and 50 mg/L. Fresh cotton leaves of uniform size were immersed in the solutions with different concentrations for 10s, air-dried, and placed backside up on culture plates. 100 wingless adult aphids were introduced into each culture plate. The culture plates were sealed with paper strips and placed in a constant-temperature room. Mortality rates were checked after 72 h. 3. Mite test: The test sample was prepared into solutions with final concentrations of 0.02 mg/L, 0.2 mg/L, and 2 mg/L. Filter paper treated with the test solutions was placed in Petri dishes, and about 30 mites were placed at the center of each Petri dish. 0.05 g of mite feed was added to the center of each Petri dish after 30 min. The Petri dishes were placed in a constant-temperature room, and mortality rates were checked after 72 h. 4. Borer test: The test sample was prepared into solutions with final concentrations of 0.125 mg/L, 0.5 mg/L, and 2 mg/L. Fresh leaves were cut, immersed in the solutions with different concentrations for 10s, taken out, and air-dried. The treated leaves were placed in Petri dishes, and 30 borer larvae were introduced into each Petri dish. The Petri dishes were placed in a constant-temperature room, and mortality rates were checked after 72 h.

[3] = tested on: Aphid; experiment: Killing efficacy test against agricultural pests: aphid test (leaf dip); assay type: in vivo, aphids; settings: after 72 h
Protocol: as §1

[4] = tested on: Mite; experiment: Killing efficacy test against agricultural pests: mite test (treated filter paper); assay type: in vivo, mites; settings: after 72 h
Protocol: as §1

[5] = tested on: Borer; experiment: Killing efficacy test against agricultural pests: borer test (leaf dip); assay type: in vivo; settings: after 72 h
Protocol: as §1

[6] = In vivo pharmacokinetic evaluation in mice; design: species or system ICR mice; settings: ICR, mouse, plasma; for AUC: read-out: AUC^1-24 h; for C0: read-out: C0; for Cmax: read-out: Cmax; for Tmax: read-out: Tmax; for Vd: in vivo, read-out: Vss; for bioavailability: PO (30 mg/kg) vs IV (6 mg/kg)
Protocol: 1. Drug preparation: 5% DMSO + 10% macrogol 15 hydroxystearate (BASF) + 85% saline (where drug solutions have a final concentration of 1.2 mg/mL for the IV group and 3 mg/mL for the PO group). 2. Experimental animals: Each group included three mice (ICR mice, SPF grade). 3. Administration method: The body weight was measured before administration, and the dose was calculated according to the body weight. The mice were administered through intravenous injection or oral gavage. 4. Blood collection: After administration, blood samples were collected in 0.083 h, 0.25 h, 0.5 h, 1 h, 2 h, 4 h, 6 h, 8 h, and 24 h. The blood samples were collected via the cheek. Each sample included about 0.05 mL of blood anticoagulated with EDTA-2K. The blood samples were placed on wet ice after collection. 5. Sample treatment: The blood samples were placed on ice after collection and centrifuged within 1 h to obtain plasma (centrifugation conditions: 6000 g, 3 min, 2-8°C). Plasma samples were stored in a -80°C refrigerator before analysis. 6. Data processing: Pharmacokinetic parameters were calculated using Phoenix WinNonlin 8.2.0 based on plasma concentration data at different time points.

[7] = 4 h, read-out: Mite Mortality Rate 4 h
[8] = 24 h, read-out: Mite Mortality Rate 24 h

Row | SMILES | mortality at 30 µM [1, 7] [%] | mortality at 30 µM [1, 8] [%] | mortality at 0.0156 µg/mL [2] [%] | mortality at 0.125 µg/mL [2] [%] | mortality at 1 µg/mL [2] [%] | Corrected Mortality Rate (%) ([3]; 2 mg/L) | Corrected Mortality Rate (%) ([3]; 10 mg/L) | Corrected Mortality Rate (%) ([3]; 50 mg/L) | Corrected Mortality Rate (%) ([4]; 0.02 mg/L) | Corrected Mortality Rate (%) ([4]; 0.2 mg/L) | Corrected Mortality Rate (%) ([4]; 2 mg/L) | Corrected Mortality Rate (%) ([5]; 0.125 mg/L) | Corrected Mortality Rate (%) ([5]; 0.5 mg/L) | Corrected Mortality Rate (%) ([5]; 2 mg/L) | clearance ([6]; IV (6 mg/kg)) [mL/min/kg] | half-life ([6]; IV (6 mg/kg)) [h] | AUC ([6]; IV (6 mg/kg)) [µg·h/mL] | C0 ([6]; IV (6 mg/kg)) [ng/mL] | half-life ([6]; PO (30 mg/kg)) [h] | AUC ([6]; PO (30 mg/kg)) [µg·h/mL] | also measured
1 | Cc1cc(C2=NO[C@@](c3cc(Cl)cc(C(F)(F)F)c3)(C(F)(F)F)C2)ccc1C(=O)NCC(=O)NC1(C(F)(F)F)CC1 [Example 008, (S)-4-(5-(3-chloro-5-(trifluoromethyl)phenyl)-5-(trifluoromethyl)-4,5-dihydroisoxazol-3-yl)-2-m ethyl-N-(2-oxo-2-((1-(trifluoromethyl)cyclopropyl)amino)ethyl)benzamide] | > 90 | > 90 | 5 | 100 | 100 | 86 | 100 | 100 | 62 | 92 | 100 | 2 | 82 | 100 | 0.713 | 37.6 | 56.1 | 10300 | 31.6 | 233 | Cmax ([6]; PO (30 mg/kg)): 15300 ng/mL; Tmax ([6]; PO (30 mg/kg)): 9.33 h; Vd ([6]; IV (6 mg/kg)): 1.93 L/kg; bioavailability [6]: 83.1%
2 | Cc1cc(C2=NO[C@@](c3cc(Cl)cc(Cl)c3)(C(F)(F)F)C2)ccc1C(=O)NCC(=O)NC1(C(F)(F)F)CC1 [Example 011, (S)-4-(5-(3,5-dichlorophenyl)-5-(trifluoromethyl)-4,5-dihydroisoxazol-3-yl)-2-methyl-N-(2-oxo-2-((1-(trifluoromethyl)cyclopropyl)amino)ethyl)benzamide] | > 90 | > 90 | 0 | 100 | 100 | 60 | 100 | 100 | 34 | 86 | 100 | 29 | 93 | 100 | 1.18 | 20 | 48.9 | 6800 | 27.8 | 231 | Cmax ([6]; PO (30 mg/kg)): 15900 ng/mL; Tmax ([6]; PO (30 mg/kg)): 2.67 h; Vd ([6]; IV (6 mg/kg)): 1.96 L/kg; bioavailability [6]: 94.6%
